Results as given in PubChem BioAssay AID328 (DTP/NCI, 2004).
Values joined by “and” are separate entries in the source; they are usually repeats but may differ in a detail not shown here. Equal entries are not always repeated. Toxic doses and inconclusive results are not listed. Residues, ends and D or L forms follow the SMILES beside them. *: point of attachment. Cbz = O=C(OCc1ccccc1)*

Tested on: BDF1 mice, P388 leukemia ip, median survival T/C
Assay: NCI In Vivo Anticancer Drug Screen. Data for tumor model P388 Leukemia (intraperitoneal) in B6D2F1 (BDF1) mice
Conditions: endpoint: median survival time, higher = longer survival
How it was run: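 In tumour-bearing mice, survival after compound treatment is set against the vehicle group and given as a quotient.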

[1] = dose: 100.0 mg/kg/injection, schedule: Q01DX009 (ip), vehicle: Klucel (hydroxypropylcellulose) (HPC)
[2] = dose: 100.0 mg/kg/injection, schedule: Q01DX009 (ip), vehicle: saline with Tween-80
[3] = dose: 50.0 mg/kg/injection, schedule: Q01DX009 (ip), vehicle: saline with Tween-80
[4] = dose: 50.0 mg/kg/injection, schedule: Q04DX003 (ip), vehicle: saline with Tween-80
[5] = dose: 100.0 mg/kg/injection, schedule: Q04DX003 (ip), vehicle: saline with Tween-80
[6] = dose: 200.0 mg/kg/injection, schedule: Q01DX009 (ip), vehicle: saline with Tween-80
[7] = dose: 200.0 mg/kg/injection, schedule: Q04DX003 (ip), vehicle: saline with Tween-80
[8] = dose: 6.25 mg/kg/injection, schedule: Q01DX009 (ip), vehicle: saline with Tween-80
[9] = dose: 12.5 mg/kg/injection, schedule: Q01DX009 (ip), vehicle: saline with Tween-80
[10] = dose: 25.0 mg/kg/injection, schedule: Q01DX009 (ip), vehicle: saline with Tween-80
[11] = dose: 25.0 mg/kg/injection, schedule: Q01DX009 (ip), vehicle: Klucel (hydroxypropylcellulose) (HPC)
[12] = dose: 50.0 mg/kg/injection, schedule: Q01DX009 (ip), vehicle: Klucel (hydroxypropylcellulose) (HPC)
[13] = dose: 150.0 mg/kg/injection, schedule: Q04DX003 (ip), vehicle: Klucel (hydroxypropylcellulose) (HPC)
[14] = dose: 400.0 mg/kg/injection, schedule: Q04DX003 (ip), vehicle: saline with Tween-80
[15] = dose: 400.0 mg/kg/injection, schedule: Q01DX009 (ip), vehicle: saline with Tween-80

NC(=S)NCCO
T/C (dose: 100.0 mg/kg/injection, schedule: Q01DX001 (ip), vehicle: saline): 104 % of control
T/C (dose: 200.0 mg/kg/injection, schedule: Q01DX001 (ip), vehicle: saline): 95 % of control
T/C (dose: 400.0 mg/kg/injection, schedule: Q01DX001 (ip), vehicle: saline): 100 % of control

COc1ccc2c(c1C)CCC1(CO)C(C(C)=O)=CCC21 (stereo unspecified)
T/C [1]: 109 % of control
T/C (dose: 100.0 mg/kg/injection, schedule: Q04DX003 (ip), vehicle: Klucel (hydroxypropylcellulose) (HPC)): 100 % of control
T/C (dose: 200.0 mg/kg/injection, schedule: Q01DX009 (ip), vehicle: Klucel (hydroxypropylcellulose) (HPC)): 95 % of control
T/C (dose: 200.0 mg/kg/injection, schedule: Q04DX003 (ip), vehicle: Klucel (hydroxypropylcellulose) (HPC)): 100 % of control
T/C (dose: 400.0 mg/kg/injection, schedule: Q01DX009 (ip), vehicle: Klucel (hydroxypropylcellulose) (HPC)): 100 % of control
T/C (dose: 400.0 mg/kg/injection, schedule: Q04DX003 (ip), vehicle: Klucel (hydroxypropylcellulose) (HPC)): 100 % of control

O=C(NC(=O)c1c(F)cccc1F)Nc1ccc(Cl)nc1
T/C [2]: 91 % of control

C=CCN(C)/N=N/c1[nH]ncc1C(N)=O
T/C [3]: 104 % of control
T/C [4]: 104 % of control
T/C [5]: 109 % of control
T/C [6]: 87 % of control
T/C [7]: 109 % of control

CC(=O)N/N=C\C1=CCC=C(Br)S1
T/C [3]: 90 % of control
T/C [2]: 104 % of control

CNC(=N)c1ccc(NC(=N)c2ccc(NC(=O)Nc3ccc(C(=N)Nc4ccc(C(=N)NC)cc4)cc3)cc2)cc1
T/C (dose: 6.0 mg/kg/injection, schedule: Q01DX009 (ip), vehicle: saline with Tween-80): 216 % of control
T/C (dose: 8.0 mg/kg/injection, schedule: Q01DX009 (ip), vehicle: saline with Tween-80): 172 % of control and 214 % of control
T/C (dose: 12.0 mg/kg/injection, schedule: Q01DX009 (ip), vehicle: saline with Tween-80): 241 % of control and 204 % of control and 214 % of control
T/C (dose: 12.5 mg/kg/injection, schedule: Q04DX003 (ip), vehicle: saline with Tween-80): 122 % of control

CCOC(=O)Cn1ccc(=O)[nH]c1=O
T/C (dose: 75.0 mg/kg/injection, schedule: Q04DX003 (ip), vehicle: saline): 100 % of control
T/C (dose: 150.0 mg/kg/injection, schedule: Q04DX003 (ip), vehicle: saline): 100 % of control
T/C (dose: 300.0 mg/kg/injection, schedule: Q04DX003 (ip), vehicle: saline): 100 % of control

CN(C)NP(=O)(NN(C)C)N(C)C
T/C (dose: 50.0 mg/kg/injection, schedule: Q04DX003 (ip), vehicle: saline): 100 % of control
T/C (dose: 100.0 mg/kg/injection, schedule: Q04DX003 (ip), vehicle: saline): 113 % of control
T/C (dose: 200.0 mg/kg/injection, schedule: Q04DX003 (ip), vehicle: saline): 95 % of control

Cn1ncc2c(NCc3ccc(Cl)cc3)ncnc21
T/C [8]: 97 % of control
T/C [9]: 101 % of control
T/C [10]: 93 % of control
T/C [3]: 97 % of control

O=C(/C=C/c1ccc2c(c1)OCO2)c1ccc([N+](=O)[O-])cc1
T/C (dose: 6.25 mg/kg/injection, schedule: Q04DX003 (ip), vehicle: Klucel (hydroxypropylcellulose) (HPC)): 100 % of control
T/C (dose: 12.5 mg/kg/injection, schedule: Q04DX003 (ip), vehicle: Klucel (hydroxypropylcellulose) (HPC)): 100 % of control
T/C (dose: 25.0 mg/kg/injection, schedule: Q04DX003 (ip), vehicle: Klucel (hydroxypropylcellulose) (HPC)): 100 % of control
T/C (dose: 50.0 mg/kg/injection, schedule: Q04DX003 (ip), vehicle: Klucel (hydroxypropylcellulose) (HPC)): 86 % of control
T/C (dose: 100.0 mg/kg/injection, schedule: Q01DX001 (ip), vehicle: Klucel (hydroxypropylcellulose) (HPC)): 105 % of control
T/C (dose: 200.0 mg/kg/injection, schedule: Q01DX001 (ip), vehicle: Klucel (hydroxypropylcellulose) (HPC)): 90 % of control
T/C (dose: 400.0 mg/kg/injection, schedule: Q01DX001 (ip), vehicle: Klucel (hydroxypropylcellulose) (HPC)): 92 % of control

CCOC(=O)C1(C)C=C(Nc2ccc(OC)cc2)C(=O)N1c1ccc(OC)cc1 (stereo unspecified)
T/C [8]: 104 % of control
T/C [9]: 100 % of control
T/C [10]: 100 % of control
T/C [3]: 95 % of control

COC(=O)c1cc(Cl)ccc1OCC(=O)NCc1ccc(Cl)cc1
T/C (dose: 100.0 mg/kg/injection, schedule: Q01DX001 (ip), vehicle: saline with Tween-80): 100 % of control
T/C (dose: 200.0 mg/kg/injection, schedule: Q01DX001 (ip), vehicle: saline with Tween-80): 95 % of control
T/C (dose: 400.0 mg/kg/injection, schedule: Q01DX001 (ip), vehicle: saline with Tween-80): 90 % of control

O=C(O)CCCCc1ccc(CCCCC(=O)O)cc1
T/C [11]: 104 % of control
T/C [12]: 104 % of control
T/C [1]: 90 % of control
T/C [13]: 120 % of control

c1ccc2c(c1)C1c3ccccc3C2C2COCC12 (stereo unspecified)
T/C [11]: 105 % of control
T/C [12]: 110 % of control
T/C (dose: 75.0 mg/kg/injection, schedule: Q04DX003 (ip), vehicle: Klucel (hydroxypropylcellulose) (HPC)): 108 % of control
T/C [1]: 100 % of control
T/C [13]: 104 % of control
T/C (dose: 300.0 mg/kg/injection, schedule: Q04DX003 (ip), vehicle: Klucel (hydroxypropylcellulose) (HPC)): 86 % of control

CCCc1nn2c(-c3ccccc3)nnc2o1
T/C [5]: 110 % of control
T/C [7]: 115 % of control
T/C [14]: 110 % of control

ClCCn1cnc2c(SCc3ccccc3Cl)ncnc21
T/C [10]: 100 % of control
T/C [3]: 91 % of control
T/C [2]: 108 % of control
T/C [5]: 100 % of control
T/C [14]: 112 % of control

COc1cc2oc3ccccc3c(=O)c2cc1CSc1ccccc1N
T/C [3]: 123 % of control
T/C [2]: 88 % of control
T/C [6]: 90 % of control

CC1CC/C(=N\N(C)C)c2ccccc21 (stereo unspecified)
T/C (dose: 67.0 mg/kg/injection, schedule: Q04DX003 (ip), vehicle: saline with Tween-80): 118 % of control
T/C [5]: 122 % of control
T/C [14]: 120 % of control

CCC[n+]1ccc(/C=N\NC(N)=S)c2ccccc21
T/C [10]: 94 % of control
T/C [3]: 103 % of control
T/C [2]: 122 % of control
T/C [6]: 122 % of control

O=C1CN(Cc2ccccc2)CC(=O)N2C(c3ccccc3)CCCN12 (stereo unspecified)
T/C (dose: 50.0 mg/kg/injection, schedule: Q01DX005 (ip), vehicle: saline with Tween-80): 97 % of control
T/C (dose: 100.0 mg/kg/injection, schedule: Q01DX005 (ip), vehicle: saline with Tween-80): 87 % of control
T/C (dose: 200.0 mg/kg/injection, schedule: Q01DX005 (ip), vehicle: saline with Tween-80): 92 % of control

CCOC(=O)C1C(=O)NC(=O)CC1C (stereo unspecified)
T/C [2]: 99 % of control
T/C [5]: 96 % of control
T/C [6]: 101 % of control
T/C [7]: 99 % of control
T/C [15]: 105 % of control
T/C [14]: 107 % of control

CN=S(=O)(OCCCCOS(=O)(=NC)c1ccccc1)c1ccccc1 (stereo unspecified)
T/C [9]: 116 % of control

O=C(O)C1CCCN1C(=O)C1CCCN1C(=O)OCc1ccccc1 (stereo not drawn) (Cbz-Pro-Pro-OH; configuration not given here)
T/C (dose: 50.0 mg/kg/injection, schedule: Q01DX005 (ip), vehicle: saline): 101 % of control
T/C (dose: 100.0 mg/kg/injection, schedule: Q01DX005 (ip), vehicle: saline): 101 % of control
T/C (dose: 200.0 mg/kg/injection, schedule: Q01DX005 (ip), vehicle: saline): 107 % of control

CC1SC(c2ccccc2)N(c2nccs2)C1=O (stereo unspecified)
T/C [3]: 103 % of control
T/C [2]: 89 % of control
T/C [6]: 99 % of control

C[C@]12C[C@@H](F)C(=O)C[C@@H]1CC[C@@H]1[C@@H]2CC[C@]2(C)[C@@H](O)CC[C@@H]12
T/C [2]: 95 % of control
T/C [5]: 110 % of control
T/C [6]: 95 % of control
T/C [7]: 100 % of control
T/C [15]: 100 % of control
T/C [14]: 105 % of control

N#Cc1nc2ccccc2nc1C#N
T/C (dose: 12.5 mg/kg/injection, schedule: Q01DX009 (ip), vehicle: Klucel (hydroxypropylcellulose) (HPC)): 106 % of control
T/C [11]: 99 % of control

O=C1c2ccccc2C(=O)N1CCc1ccccn1
T/C [4]: 100 % of control
T/C [2]: 100 % of control
T/C [5]: 95 % of control and 111 % of control
T/C [6]: 95 % of control
T/C [7]: 100 % of control and 111 % of control
T/C [14]: 88 % of control

CC(C)Oc1ccc2c(c1)Sc1ccc(Cl)cc1N2
T/C [2]: 104 % of control
T/C [6]: 104 % of control
T/C [15]: 104 % of control
